Laboratory results: patent US6914045B2, “Glycopeptide antibiotics” (Wyeth Holdings Corporation, priority 2001, dated 2005)

Assays:
Escherichia coli = assay: in vitro antibacterial evaluation, MIC by broth dilution; assay type: cell-based
Summary of the method: (§1)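 Inoculum 5×10^5 CFU/mL; concentrations 64 to 0.06 μg/mL; MIC defined as lowest inhibitory level. Conducted by broth dilution under NCCLS guidelines.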

Streptococcus sp. = assay: as above; assay type: cell-based; details: broth dilution, 18 hours at 35° C.; for MIC Streptococcus pneumoniae (ATCC 6301): strain ATCC 6301; for MIC Streptococcus pneumoniae (GC 1894): strain GC 1894; for MIC Streptococcus pyogenes (GC 4563): strain GC 4563; for MIC Streptococcus agalactiae (GC 4564): strain GC 4564; for MIC Streptococcus pneumoniae (GC 4565): strain GC 4565
Summary of the method: as §1

Enterococcus sp. = assay: as above; assay type: cell-based; details: broth dilution, 18 hours at 35° C.; for MIC Enterococcus faecalis (ATCC 29212): strain ATCC 29212; for MIC Enterococcus faecalis (GC 2242): strain GC 2242; for MIC Enterococcus faecium (GC 2243): strain GC 2243; for MIC Enterococcus faecalis (GC 2691): strain GC 2691; for MIC Enterococcus faecalis (GC 3059): strain GC 3059; for MIC Enterococcus faecalis (GC 4552): strain GC 4552; for MIC Enterococcus faecalis (GC 4553): strain GC 4553; for MIC Enterococcus faecalis (GC 4554): strain GC 4554; for MIC Enterococcus faecium (GC 4556): strain GC 4556; for MIC Enterococcus faecium (GC 4557): strain GC 4557; for MIC Enterococcus avium (GC 4558): strain GC 4558; for MIC Enterococcus faecalis (GC 6189): strain GC 6189
Summary of the method: as §1

Staphylococcus sp. = assay: as above; assay type: cell-based; details: broth dilution, 18 hours at 35° C.; for MIC Staphylococcus aureus (GC 1131): strain GC 1131
Summary of the method: as §1

[1] = tested on: Staphylococcus aureus-SMITH (GC 4543); assay: acute lethal infection in mice; assay type: in vivo; details: acute lethal infection, female CD-1 mice, intraperitoneal challenge, intravenous 30 min. after infection, 7 day survival
Summary of the method: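 Female CD-1 mice (20±2 g) got an intraperitoneal bacterial challenge lethal to untreated controls within 24–48 hr. Compound was dosed intravenously 30 min after infection, five mice per dose. ED50 was calculated from 7-day survival pooled across 3 tests.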

COc1ccc(Oc2cccc(C3OCC4OC(OC5C(CO)OC(Oc6ccc(CC7NC(=O)C(C(C)c8ccccc8)NC(=O)CNC(=O)C(CO)NC(=O)C(C(O)C8CNC(=N)N8C8OC(CO)C(O)C(O)C8O)NC(=O)C(C(O)C8CNC(=N)N8)NC7=O)cc6)C(O)C5O)C(O)C(O)C4O3)c2)cc1 (stereo not drawn) [Example 180, Cyclo[glycyl-β-methylphenylalanyl-O-[4-O-[4,6-O-[3-(4-methoxyphenoxy)benzylidene]hexopyranosyl]hexopyranosyl]tyrosyl-3-(2-iminoimidazolidin-4-yl)seryl-3-(3-hexopyranosyl-2-iminoimidazolidin-4-yl)serylseryl]]
0.05 mg/kg: median effective dose (ED50), Staphylococcus aureus-SMITH (GC 4543) [1]
4 mg/L: MIC Enterococcus faecalis (ATCC 29212) (Enterococcus sp.; inoculum 5×10^5 CFU/mL) | MIC Enterococcus faecalis (GC 2242) (Enterococcus sp.; inoculum 5×10^5 CFU/mL) | MIC Enterococcus faecalis (ATCC 29212) (Enterococcus sp.) | MIC Enterococcus faecalis (GC 2242) (Enterococcus sp.)
2 mg/L: MIC Escherichia coli (GC 4560) (Escherichia coli; strain GC 4560, 18 hours at 35° C.) | MIC Enterococcus faecium (GC 2243) (Enterococcus sp.; inoculum 5×10^5 CFU/mL) | MIC Enterococcus faecalis (GC 2691) (Enterococcus sp.; inoculum 5×10^5 CFU/mL) | MIC Enterococcus faecalis (GC 3059) (Enterococcus sp.; inoculum 5×10^5 CFU/mL) | MIC Enterococcus faecalis (GC 4552) (Enterococcus sp.; inoculum 5×10^5 CFU/mL) | MIC Enterococcus faecalis (GC 4553) (Enterococcus sp.; inoculum 5×10^5 CFU/mL) | MIC Enterococcus faecalis (GC 4554) (Enterococcus sp.; inoculum 5×10^5 CFU/mL) | MIC Enterococcus faecium (GC 4556) (Enterococcus sp.; inoculum 5×10^5 CFU/mL) | MIC Enterococcus faecium (GC 4557) (Enterococcus sp.; inoculum 5×10^5 CFU/mL) | MIC Enterococcus avium (GC 4558) (Enterococcus sp.; inoculum 5×10^5 CFU/mL) | MIC Enterococcus faecalis (GC 6189) (Enterococcus sp.; inoculum 5×10^5 CFU/mL) | MIC Enterococcus faecium (GC 2243) (Enterococcus sp.) | MIC Enterococcus faecalis (GC 2691) (Enterococcus sp.) | MIC Enterococcus faecalis (GC 3059) (Enterococcus sp.) | MIC Enterococcus faecalis (GC 4552) (Enterococcus sp.) | MIC Enterococcus faecalis (GC 4553) (Enterococcus sp.) | MIC Enterococcus faecalis (GC 4554) (Enterococcus sp.) | MIC Enterococcus faecium (GC 4556) (Enterococcus sp.) | MIC Enterococcus faecium (GC 4557) (Enterococcus sp.) | MIC Enterococcus avium (GC 4558) (Enterococcus sp.) | MIC Enterococcus faecalis (GC 6189) (Enterococcus sp.) | MIC Staphylococcus aureus (GC 1131) (Staphylococcus sp.; inoculum 5×10^5 CFU/mL) | MIC Staphylococcus aureus (ATCC 29213) (Staphylococcus sp.; strain ATCC 29213) | MIC Staphylococcus aureus (GC 1131) (Staphylococcus sp.) | MIC Staphylococcus aureus (GC 3053) (Staphylococcus sp.; strain GC 3053) | MIC Staphylococcus aureus (GC 4541) (Staphylococcus sp.; strain GC 4541) | MIC Staphylococcus aureus (GC 4542) (Staphylococcus sp.; strain GC 4542) | MIC Staphylococcus aureus (GC 4544) (Staphylococcus sp.; strain GC 4544) | MIC Staphylococcus aureus (GC 4545) (Staphylococcus sp.; strain GC 4545) | MIC Staphylococcus aureus-SMITH (GC 4543) (Staphylococcus sp.; strain GC 4543) | MIC Staphylococcus haemolyticus (GC 4546) (Staphylococcus sp.; strain GC 4546) | MIC Coagulase Negative Staphylococcus (GC 4547) (Staphylococcus sp.; strain GC 4547)
0.5 mg/L: MIC Coagulase Negative Staphylococcus (GC 6257) (Staphylococcus sp.; strain GC 6257)
>64 mg/L: MIC Escherichia coli (ATCC 25922) (Escherichia coli; strain ATCC 25922, 18 hours at 35° C.)
1 mg/L: MIC Staphylococcus aureus (GC 3051) (Staphylococcus sp.; strain GC 3051) | MIC Coagulase Negative Staphylococcus (GC 4548) (Staphylococcus sp.; strain GC 4548) | MIC Coagulase Negative Staphylococcus (GC 4549) (Staphylococcus sp.; strain GC 4549) | MIC Coagulase Negative Staphylococcus (GC 4551) (Staphylococcus sp.; strain GC 4551)
<0.06 mg/L: MIC Streptococcus pneumoniae (ATCC 6301) (Streptococcus sp.; inoculum 5×10^5 CFU/mL) | MIC Streptococcus pneumoniae (GC 1894) (Streptococcus sp.; inoculum 5×10^5 CFU/mL) | MIC Streptococcus pyogenes (GC 4563) (Streptococcus sp.; inoculum 5×10^5 CFU/mL) | MIC Streptococcus agalactiae (GC 4564) (Streptococcus sp.; inoculum 5×10^5 CFU/mL) | MIC Streptococcus pneumoniae (GC 4565) (Streptococcus sp.; inoculum 5×10^5 CFU/mL) | MIC Streptococcus pneumoniae (ATCC 6301) (Streptococcus sp.) | MIC Streptococcus pneumoniae (GC 1894) (Streptococcus sp.) | MIC Streptococcus pyogenes (GC 4563) (Streptococcus sp.) | MIC Streptococcus agalactiae (GC 4564) (Streptococcus sp.) | MIC Streptococcus pneumoniae (GC 4565) (Streptococcus sp.)
64 mg/L: MIC Escherichia coli (GC 4559) (Escherichia coli; strain GC 4559, 18 hours at 35° C.)
